Test results taken from ChEMBL document CHEMBL1201862, “PubChem BioAssay data set” (2004).
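Values below derive from 48-hour exposures of cells grown in 96-well plates, with endpoints linearly interpolated between the two concentrations bracketing the appropriate inhibition level. GI50 = concentration required for 50% inhibition of growth.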 Activity calls are given as the source filed them. Rule as the data show it: active = GI50 up to about 1.1 µM and inactive = higher.

How the values were obtained:
Assay in all cases: NCI anticancer screen, dose series, 48 h
HCT-116 = system: HCT-116
HOP-62 = system: HOP-62
HT-29 = system: HT-29
IGROV-1 = system: IGROV-1
OVCAR-4 = system: OVCAR-4
OVCAR-5 = system: OVCAR-5
OVCAR-8 = system: OVCAR-8
RXF 393 = system: RXF 393
SK-MEL-28 = system: SK-MEL-28
SK-MEL-2 = system: SK-MEL-2
SK-MEL-5 = system: SK-MEL-5
SNB-19 = system: SNB-19
SNB-75 = system: SNB-75
TK-10 = system: TK-10
U-251 = system: U-251
UACC-62 = system: UACC-62

Measured: GI50

COc1ccc(C2C(Cl)C(=O)N2NC(=O)Cc2ccccc2)cc1 (stereo not given)
inactive: HCT-116 > 100 µM | HOP-62 > 100 µM | HT-29 > 100 µM | IGROV-1 > 100 µM | OVCAR-4 > 100 µM | OVCAR-5 > 100 µM | OVCAR-8 > 100 µM | RXF 393 > 100 µM | SK-MEL-28 > 100 µM | SK-MEL-2 > 100 µM | SK-MEL-5 > 100 µM | SNB-19 > 100 µM | SNB-75 > 100 µM | TK-10 > 100 µM | U-251 > 100 µM | UACC-62 > 100 µM

O=C(COc1ccc(Cl)cc1)N1N=C(c2ccc(Cl)cc2)CC1(O)c1ccccc1 (stereo not given)
inactive: HCT-116 12.6 µM | HOP-62 23.4 µM | HT-29 12.9 µM | IGROV-1 18.5 µM | OVCAR-4 7.48 µM | OVCAR-5 21.7 µM | OVCAR-8 15.2 µM | SK-MEL-28 18.2 µM | SK-MEL-2 24.3 µM | SK-MEL-5 14.5 µM | SNB-19 20.3 µM | SNB-75 29.9 µM | TK-10 26.7 µM | U-251 16.7 µM | UACC-62 15.9 µM

O=C1C2=C(c3ccccc31)C(c1cccc(Cl)c1)NC(S)=N2 (stereo not given)
inactive: HCT-116 > 100 µM | HOP-62 > 100 µM | HT-29 > 100 µM | IGROV-1 > 100 µM | OVCAR-4 76.7 µM | OVCAR-5 > 100 µM | OVCAR-8 96.4 µM | SK-MEL-28 > 100 µM | SK-MEL-2 > 100 µM | SK-MEL-5 55.1 µM | SNB-19 > 100 µM | SNB-75 31.9 µM | TK-10 > 100 µM | U-251 > 100 µM | UACC-62 > 100 µM

C[P+](C)(C)C
inactive: HCT-116 > 100 µM | HOP-62 > 100 µM | HT-29 > 100 µM | IGROV-1 > 100 µM | OVCAR-4 > 100 µM | OVCAR-5 > 100 µM | OVCAR-8 > 100 µM | RXF 393 > 100 µM | SK-MEL-28 > 100 µM | SK-MEL-2 > 100 µM | SK-MEL-5 > 100 µM | SNB-19 > 100 µM | SNB-75 > 100 µM | TK-10 > 100 µM | U-251 > 100 µM | UACC-62 > 100 µM

CCOc1ccc(/N=N/c2c(-c3ccccc3)nn(C(=O)CC(=O)Nc3cccc(C)c3)c2-c2ccccc2)cc1
inactive: HCT-116 58.5 µM | HOP-62 > 100 µM | HT-29 22 µM | IGROV-1 > 100 µM | OVCAR-4 > 100 µM | OVCAR-5 74.1 µM | OVCAR-8 > 100 µM | RXF 393 57.9 µM | SK-MEL-28 > 100 µM | SK-MEL-2 > 100 µM | SK-MEL-5 90.2 µM | SNB-19 > 100 µM | SNB-75 27.9 µM | TK-10 > 100 µM | U-251 56.2 µM | UACC-62 > 100 µM

CCCCCCCCCCCCCC(=O)OCC1OC(=O)C(O)C1O (stereo not given)
inactive: HCT-116 > 100 µM | HOP-62 > 100 µM | HT-29 > 100 µM | IGROV-1 > 100 µM | OVCAR-4 > 100 µM | OVCAR-5 > 100 µM | OVCAR-8 > 100 µM | SK-MEL-28 > 100 µM | SK-MEL-5 > 100 µM | SNB-19 > 100 µM | SNB-75 > 100 µM | TK-10 > 100 µM | U-251 > 100 µM | UACC-62 > 100 µM

O=C1C=CC(=O)N1Nc1ccc([N+](=O)[O-])cc1[N+](=O)[O-]
inactive: HCT-116 > 100 µM | HOP-62 > 100 µM | HT-29 > 71.4 µM | IGROV-1 > 100 µM | OVCAR-4 > 42.3 µM | OVCAR-5 > 100 µM | OVCAR-8 > 100 µM | SK-MEL-28 > 43.4 µM | SK-MEL-2 > 100 µM | SK-MEL-5 > 100 µM | SNB-19 > 100 µM | SNB-75 > 100 µM | TK-10 > 100 µM | U-251 > 100 µM | UACC-62 > 100 µM

Clc1ccc2c(c1)[nH]c1c2nc2sccn21
inactive: HCT-116 > 100 µM | HOP-62 > 100 µM | HT-29 > 100 µM | IGROV-1 > 100 µM | OVCAR-4 > 100 µM | OVCAR-5 > 100 µM | OVCAR-8 > 100 µM | RXF 393 > 100 µM | SK-MEL-28 > 100 µM | SK-MEL-2 > 100 µM | SK-MEL-5 > 100 µM | SNB-19 > 100 µM | SNB-75 28.6 µM | TK-10 > 100 µM | U-251 > 100 µM | UACC-62 > 100 µM

CC(C)N(C(=O)C1(C)CC1)C(C)C
inactive: HCT-116 > 100 µM | HOP-62 > 100 µM | HT-29 > 100 µM | IGROV-1 > 100 µM | OVCAR-4 > 100 µM | OVCAR-5 > 100 µM | OVCAR-8 > 100 µM | RXF 393 > 100 µM | SK-MEL-28 > 100 µM | SK-MEL-2 > 100 µM | SK-MEL-5 > 100 µM | SNB-19 > 100 µM | SNB-75 > 100 µM | U-251 > 100 µM | UACC-62 > 100 µM

O=C(O)c1cc(=O)c2c([nH]c3ccccc32)s1
inactive: HOP-62 > 100 µM | IGROV-1 > 100 µM | OVCAR-4 > 100 µM | OVCAR-5 > 100 µM | OVCAR-8 > 100 µM | RXF 393 > 100 µM | SK-MEL-28 > 100 µM | SK-MEL-2 > 100 µM | SK-MEL-5 > 100 µM | SNB-19 > 100 µM | SNB-75 56.8 µM | TK-10 > 100 µM | UACC-62 > 100 µM

COC(=O)CC(=O)NCC1=CCC(=O)CC1
inactive: HCT-116 > 100 µM | HOP-62 > 100 µM | HT-29 > 100 µM | IGROV-1 > 100 µM | OVCAR-4 > 100 µM | OVCAR-8 > 100 µM | RXF 393 > 100 µM | SK-MEL-28 > 100 µM | SK-MEL-2 > 100 µM | SK-MEL-5 > 100 µM | SNB-19 > 100 µM | SNB-75 > 100 µM | TK-10 > 100 µM | U-251 > 100 µM | UACC-62 > 100 µM

Cn1c2c(c3ccccc31)C1C(=O)N(c3ccccc3)C(=O)C1CC2 (stereo not given)
inactive: HCT-116 294 µM | HOP-62 > 303 µM | HT-29 > 303 µM | IGROV-1 > 303 µM | OVCAR-8 > 303 µM | RXF 393 > 303 µM | SK-MEL-28 > 303 µM | SK-MEL-2 > 303 µM | SK-MEL-5 > 303 µM | SNB-19 111 µM | TK-10 > 303 µM | U-251 > 303 µM | UACC-62 > 303 µM

C[N+]1=c2c3cccc4cccc(c(=O)n2CC1)c43
inactive: HCT-116 4.68 µM | HOP-62 22 µM | HT-29 16.8 µM | IGROV-1 21.9 µM | OVCAR-4 17.6 µM | OVCAR-5 15.5 µM | OVCAR-8 16.6 µM | RXF 393 11.4 µM | SK-MEL-28 15.8 µM | SK-MEL-2 19.6 µM | SK-MEL-5 18.2 µM | SNB-75 21.8 µM | TK-10 5.82 µM | U-251 28.6 µM | UACC-62 17.5 µM

COc1cc2c3c(c1OC)-c1c(ccc4c1OCO4)CC3(C#N)N(C(=O)c1ccccc1)CC2 (stereo not given)
inactive: HCT-116 42.2 µM | HOP-62 38.5 µM | HT-29 > 100 µM | IGROV-1 > 100 µM | OVCAR-4 21 µM | OVCAR-5 > 100 µM | OVCAR-8 44.5 µM | RXF 393 36.1 µM | SK-MEL-5 > 100 µM | SNB-19 61.5 µM | SNB-75 21.2 µM | TK-10 > 100 µM | U-251 36.4 µM | UACC-62 42 µM

C[P+]1(Cc2ccccc2)CCCC1
inactive: HCT-116 > 100 µM | HOP-62 > 100 µM | HT-29 > 100 µM | IGROV-1 > 100 µM | OVCAR-5 > 100 µM | OVCAR-8 > 100 µM | RXF 393 > 100 µM | SK-MEL-28 > 100 µM | SK-MEL-2 > 100 µM | SK-MEL-5 > 100 µM | SNB-19 > 100 µM | SNB-75 > 100 µM | TK-10 > 100 µM | U-251 > 100 µM | UACC-62 > 100 µM

CC(C)CN(CC(C)C)C(=O)C1CCCC[C@@H]1C(=O)O (stereo not given in full)
inactive: HCT-116 > 100 µM | HOP-62 > 100 µM | HT-29 > 100 µM | IGROV-1 > 100 µM | OVCAR-4 > 100 µM | OVCAR-5 > 10 µM | OVCAR-8 > 100 µM | SK-MEL-28 > 100 µM | SK-MEL-2 > 100 µM | SK-MEL-5 > 100 µM | SNB-75 > 100 µM | TK-10 > 100 µM | U-251 > 100 µM | UACC-62 > 100 µM

Nc1nc(-c2ccccc2)cc(-c2cc(Cl)ccc2O)n1
inactive: HCT-116 39.7 µM | HOP-62 29.1 µM | HT-29 > 100 µM | IGROV-1 49.3 µM | OVCAR-4 63.8 µM | OVCAR-5 > 100 µM | OVCAR-8 32.9 µM | RXF 393 64.3 µM | SK-MEL-28 > 100 µM | SNB-19 53.8 µM | SNB-75 28.7 µM | TK-10 54.2 µM | U-251 35.6 µM | UACC-62 > 100 µM

CC1=C(C(=O)Nc2ccc([N+](=O)[O-])cc2)C(c2ccco2)C(C(=O)Nc2ccc([N+](=O)[O-])cc2)=C(C)N1
inactive: HOP-62 10 µM | HT-29 25.8 µM | IGROV-1 14.9 µM | OVCAR-4 3.88 µM | OVCAR-5 30.9 µM | OVCAR-8 26.9 µM | RXF 393 4.61 µM | SK-MEL-28 28.2 µM | SK-MEL-2 7.52 µM | SK-MEL-5 14.5 µM | SNB-19 27.1 µM | SNB-75 2.72 µM | TK-10 12.3 µM | U-251 21.9 µM
